US8415469B2, “Compounds and methods for kinase modulation, and indications therefor” (Plexxikon Inc., priority 2005, dated 2013)

Legend:
Format in all cases: biochemical
B-Raf V600E = biological target: T1, B-Raf V600E (Homo sapiens, UniProt P15056, V600E); test: AlphaScreen kinase assay, B-Raf V600E; settings: read-out: IC50, activity toward kinase B-Raf V600E
T1 construct: P4254. pFastBacBD-CDC37 BRAF D437-K722-X, V600E; His6 with pFastBac HT leader (TEV site) (N); made in house; host or cells: Sf9 (baculovirus; chaperone CDC37 co-expressed)
T1 sequence (P15056 with tags, fused parts or gaps V600E): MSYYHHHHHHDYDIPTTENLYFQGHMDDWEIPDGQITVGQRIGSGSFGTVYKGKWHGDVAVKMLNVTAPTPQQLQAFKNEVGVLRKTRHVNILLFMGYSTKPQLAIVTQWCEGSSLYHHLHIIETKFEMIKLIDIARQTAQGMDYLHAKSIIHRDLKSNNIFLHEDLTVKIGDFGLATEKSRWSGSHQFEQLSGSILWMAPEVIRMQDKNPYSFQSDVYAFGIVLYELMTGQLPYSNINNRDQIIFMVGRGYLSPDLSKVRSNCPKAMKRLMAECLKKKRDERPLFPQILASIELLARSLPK

Jnk1 = biological target: T2, Jnk1 (Homo sapiens, UniProt P45983); test: AlphaScreen kinase assay, Jnk1; settings: read-out: IC50, activity toward kinase Jnk1
T2 construct: purchased Upstate Biotechnology
T2 sequence (P45983 whole entry): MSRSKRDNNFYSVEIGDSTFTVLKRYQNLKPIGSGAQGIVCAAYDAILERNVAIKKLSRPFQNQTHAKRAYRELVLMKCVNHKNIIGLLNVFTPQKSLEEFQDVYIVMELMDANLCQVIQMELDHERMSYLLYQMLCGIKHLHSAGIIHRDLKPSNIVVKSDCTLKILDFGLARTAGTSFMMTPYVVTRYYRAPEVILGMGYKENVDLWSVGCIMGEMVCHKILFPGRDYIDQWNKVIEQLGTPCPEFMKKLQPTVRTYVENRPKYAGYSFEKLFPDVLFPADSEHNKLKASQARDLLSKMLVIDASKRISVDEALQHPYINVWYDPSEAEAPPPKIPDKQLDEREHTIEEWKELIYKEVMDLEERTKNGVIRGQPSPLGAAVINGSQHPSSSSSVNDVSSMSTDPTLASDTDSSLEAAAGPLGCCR

Kdr = biological target: T3, Kdr (Homo sapiens, UniProt P35968); test: Z'-Lyte FRET kinase assay (Invitrogen), Kdr; settings: read-out: IC50, activity toward kinase Kdr
T3 construct: purchased Invitrogen (assay run by Invitrogen)
T3 sequence (P35968 20-1356): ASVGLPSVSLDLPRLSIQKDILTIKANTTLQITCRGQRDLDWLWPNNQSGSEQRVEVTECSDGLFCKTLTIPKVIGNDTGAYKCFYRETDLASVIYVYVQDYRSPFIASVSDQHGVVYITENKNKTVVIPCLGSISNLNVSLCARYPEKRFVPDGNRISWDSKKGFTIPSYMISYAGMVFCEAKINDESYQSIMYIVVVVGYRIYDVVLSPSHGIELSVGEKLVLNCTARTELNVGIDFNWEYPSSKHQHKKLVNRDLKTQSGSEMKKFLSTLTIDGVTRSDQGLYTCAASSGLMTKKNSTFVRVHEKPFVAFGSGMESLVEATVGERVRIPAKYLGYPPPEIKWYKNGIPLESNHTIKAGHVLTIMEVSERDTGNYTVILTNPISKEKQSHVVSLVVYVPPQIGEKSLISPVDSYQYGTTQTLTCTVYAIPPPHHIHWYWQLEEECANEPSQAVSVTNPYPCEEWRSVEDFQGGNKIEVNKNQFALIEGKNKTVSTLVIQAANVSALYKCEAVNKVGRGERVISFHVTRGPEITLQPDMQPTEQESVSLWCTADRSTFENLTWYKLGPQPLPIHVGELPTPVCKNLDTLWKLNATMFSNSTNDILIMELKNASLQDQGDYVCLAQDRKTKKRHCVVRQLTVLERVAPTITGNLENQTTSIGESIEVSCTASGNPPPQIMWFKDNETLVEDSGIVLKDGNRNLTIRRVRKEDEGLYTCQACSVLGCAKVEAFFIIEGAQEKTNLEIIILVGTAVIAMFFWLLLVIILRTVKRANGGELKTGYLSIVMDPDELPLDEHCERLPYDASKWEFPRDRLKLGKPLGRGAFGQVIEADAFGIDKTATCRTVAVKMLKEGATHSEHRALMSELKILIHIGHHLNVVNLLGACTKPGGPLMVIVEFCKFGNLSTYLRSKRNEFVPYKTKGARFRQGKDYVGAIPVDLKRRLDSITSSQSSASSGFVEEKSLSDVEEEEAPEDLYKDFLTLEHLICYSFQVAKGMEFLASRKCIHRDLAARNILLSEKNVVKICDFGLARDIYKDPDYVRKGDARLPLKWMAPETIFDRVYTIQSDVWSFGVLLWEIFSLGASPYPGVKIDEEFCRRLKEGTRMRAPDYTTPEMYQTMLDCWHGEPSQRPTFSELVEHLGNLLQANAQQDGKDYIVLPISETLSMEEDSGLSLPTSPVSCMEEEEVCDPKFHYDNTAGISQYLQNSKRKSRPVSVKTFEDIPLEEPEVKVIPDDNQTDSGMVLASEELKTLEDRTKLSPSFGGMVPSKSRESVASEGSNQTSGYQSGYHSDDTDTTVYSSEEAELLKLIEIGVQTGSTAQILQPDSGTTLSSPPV

Yes = biological target: T4, Yes (Homo sapiens, UniProt P07947); test: Z'-Lyte FRET kinase assay (Invitrogen), Yes; settings: read-out: IC50, activity toward kinase Yes
T4 construct: purchased Invitrogen (Carlsbad, Calif.), screening service
T4 sequence (P07947 whole entry): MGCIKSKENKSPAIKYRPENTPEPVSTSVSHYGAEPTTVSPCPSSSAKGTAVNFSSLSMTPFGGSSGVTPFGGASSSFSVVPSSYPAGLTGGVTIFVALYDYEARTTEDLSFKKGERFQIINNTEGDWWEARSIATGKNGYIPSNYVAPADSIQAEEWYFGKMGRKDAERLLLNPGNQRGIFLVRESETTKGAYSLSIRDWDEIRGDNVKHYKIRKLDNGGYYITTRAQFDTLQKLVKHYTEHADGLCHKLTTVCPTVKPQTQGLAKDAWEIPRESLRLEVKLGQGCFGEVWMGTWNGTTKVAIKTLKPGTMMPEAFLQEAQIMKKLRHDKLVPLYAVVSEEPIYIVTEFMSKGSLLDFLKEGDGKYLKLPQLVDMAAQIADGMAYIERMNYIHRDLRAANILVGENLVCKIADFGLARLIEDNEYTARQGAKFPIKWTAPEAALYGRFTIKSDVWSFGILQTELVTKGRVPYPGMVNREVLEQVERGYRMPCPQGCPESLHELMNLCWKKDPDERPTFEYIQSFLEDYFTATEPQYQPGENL
How it was run: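 Z′-Lyte FRET assay: kinase phosphorylates 2 μM peptide substrate at 10 μM ATP in 50 mM HEPES pH 7.5, 50 mM MgCl2, 5 mM EGTA, 0.05% BRIJ-35, 1% DMSO, 1 h at room temperature. Protease development 1 h; coumarin/fluorescein emission ratio gives phosphorylation extent over compound concentration curves.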

Kit = biological target: T5, Kit (Homo sapiens, UniProt P10721); test: AlphaScreen kinase assay, Kit; settings: read-out: IC50, activity toward kinase Kit
T5 construct: P1332.N6 BI PTP KIT M552-K948-X COD; His6 (N); made in house; host or cells: E. coli (PTP1B co-expressed)
T5 sequence (P10721 with tags, fused parts or gaps): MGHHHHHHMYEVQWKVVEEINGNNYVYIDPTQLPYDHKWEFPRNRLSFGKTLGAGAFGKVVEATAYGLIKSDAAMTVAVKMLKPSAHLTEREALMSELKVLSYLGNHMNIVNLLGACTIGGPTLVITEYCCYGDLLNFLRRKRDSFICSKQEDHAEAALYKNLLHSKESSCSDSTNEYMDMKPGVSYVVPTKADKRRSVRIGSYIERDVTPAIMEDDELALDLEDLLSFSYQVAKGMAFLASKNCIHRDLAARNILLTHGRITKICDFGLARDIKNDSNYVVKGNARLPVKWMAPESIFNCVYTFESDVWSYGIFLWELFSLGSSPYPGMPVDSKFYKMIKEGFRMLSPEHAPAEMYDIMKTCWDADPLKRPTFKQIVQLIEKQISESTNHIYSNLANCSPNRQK

Akt3 = Akt3 (Homo sapiens, UniProt Q9Y243); test: AlphaScreen kinase assay, Akt3; settings: read-out: IC50, activity toward kinase Akt3
Sequence of Akt3 (Q9Y243 whole entry): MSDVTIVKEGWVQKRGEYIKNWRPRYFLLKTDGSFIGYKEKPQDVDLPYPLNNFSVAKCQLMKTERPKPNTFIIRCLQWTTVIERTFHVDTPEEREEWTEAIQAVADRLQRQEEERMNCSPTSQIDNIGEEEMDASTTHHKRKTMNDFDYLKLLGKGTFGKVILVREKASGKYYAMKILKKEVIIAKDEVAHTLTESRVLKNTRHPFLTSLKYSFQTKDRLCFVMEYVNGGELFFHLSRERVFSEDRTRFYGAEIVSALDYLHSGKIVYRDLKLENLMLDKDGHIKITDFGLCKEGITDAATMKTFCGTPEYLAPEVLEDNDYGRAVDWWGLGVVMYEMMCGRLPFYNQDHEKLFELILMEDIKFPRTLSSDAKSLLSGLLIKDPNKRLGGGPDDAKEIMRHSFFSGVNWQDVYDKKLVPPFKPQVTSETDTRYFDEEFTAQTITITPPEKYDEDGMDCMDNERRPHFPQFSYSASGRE
How it was run: (§1)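 Biotinylated peptide substrate phosphorylation detected by AlphaScreen with phospho-specific antibody acceptor beads and streptavidin donor beads. Compounds tested as 8-point 1:3 serial dilutions from 20 mM DMSO stocks.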

Abl = biological target: T6, Abl (Homo sapiens, UniProt P00519); test: AlphaScreen kinase assay, Abl; settings: read-out: activity toward kinase Abl, IC50
T6 construct: P1121. pET-SPEC BI-PTP Abl G227-V515-X; His6 (N); made in house; host or cells: E. coli (PTP1B co-expressed)
T6 sequence (P00519 with tags, fused parts or gaps): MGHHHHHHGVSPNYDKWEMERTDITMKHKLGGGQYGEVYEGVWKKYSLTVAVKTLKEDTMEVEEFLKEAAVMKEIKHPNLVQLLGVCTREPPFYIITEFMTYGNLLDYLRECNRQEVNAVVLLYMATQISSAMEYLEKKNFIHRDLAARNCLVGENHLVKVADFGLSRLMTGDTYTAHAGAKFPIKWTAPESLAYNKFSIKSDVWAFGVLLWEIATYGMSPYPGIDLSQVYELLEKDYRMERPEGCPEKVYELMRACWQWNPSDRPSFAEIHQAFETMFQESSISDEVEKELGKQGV
How it was run: as §1

Measured: IC50

Oc1cccc(Cc2c[nH]c3ncc(-c4cccs4)cc23)c1F [Compound P-0052, 2-Fluoro-3-(5-thiophen-2-yl-1H-pyrrolo[2,3-b]pyridin-3-ylmethyl)-phenol]
≤ 10 µM: B-Raf V600E | Jnk1 | Kdr | Yes

O=C(c1cccc(O)c1F)c1c[nH]c2ncc(Br)cc12 [Compound P-0067, (5-bromo-1H-pyrrolo[2,3-b]pyridin-3-yl)-(2-fluoro-3-hydroxy-phenyl)-methanone]
not listed: Jnk1 | Abl
≤ 10 µM: all other assays above

CS(=O)(=O)c1cccc(-c2cnc3[nH]cc(C(=O)c4c(F)ccc(F)c4F)c3c2)c1 [Compound P-0102, [5-(3-Methanesulfonyl-phenyl)-1H-pyrrolo[2,3-b]pyridin-3-yl]-(2,3,6-trifluoro-phenyl)-methanone]
not listed: Akt3 | Abl
≤ 10 µM: all other assays above

COc1ccc(C(=O)c2c[nH]c3ncc(-c4cccc(/C=C/C(=O)O)c4)cc23)c(Cl)c1 [Compound P-0015]
≤ 10 µM: B-Raf V600E | Jnk1 | Kdr | Yes

Cc1c(NS(C)(=O)=O)cccc1C(=O)c1c[nH]c2ncc(-c3ccccc3)cc12 [Compound P-0082, N-[2-Methyl-3-(5-phenyl-1H-pyrrolo[2,3-b]pyridine-3-carbonyl)-phenyl]-methanesulfonamide]
not listed: Akt3 | Abl
≤ 10 µM: all other assays above

Oc1ccc(F)c(Cc2c[nH]c3ncc(Br)cc23)c1F [Compound P-0122, 3-(5-Bromo-1H-pyrrolo[2,3-b]pyridin-3-ylmethyl)-2,4-difluoro-phenol]
not listed: Jnk1 | Abl
≤ 10 µM: all other assays above

CN(C)S(=O)(=O)Nc1ccc(F)c(Cc2c[nH]c3ncc(-c4cccnc4)cc23)c1F [Compound P-0166]
≤ 10 µM: B-Raf V600E | Kit | Yes

Fc1cc(F)cc(-c2ccnc3[nH]cc(Sc4ccccn4)c23)c1 [Compound P-0106]
≤ 10 µM: Kdr

Cc1ccc(F)cc1C(=O)c1c[nH]c2nccc(-c3cccc(NS(C)(=O)=O)c3)c12 [Compound P-0124]
≤ 10 µM: B-Raf V600E | Yes

Cc1c(O)cccc1C(=O)c1c[nH]c2ncc(-c3cccs3)cc12 [Compound P-0114, (3-Hydroxy-2-methyl-phenyl)-(5-thiophen-2-yl-1H-pyrrolo[2,3b]pyridin-3-yl)-methanone]
not listed: Yes | Abl
≤ 10 µM: all other assays above

CCCS(=O)(=O)Nc1ccc(F)c(C(=O)c2c[nH]c3ncc(OC)cc23)c1F [Compound P-0806, Propane-1-sulfonic acid [2,4-difluoro-3-(5-methoxy-1H-pyrrolo[2,3-b]pyridine-3-carbonyl)-phenyl]-amide]
≤ 10 µM: Abl | B-Raf V600E | Kdr | Kit

O=C(Nc1ccc(Cc2c[nH]c3ncccc23)cc1)Nc1cccc(C(F)(F)F)c1 [Compound P-0262, 1-[4-(1H-Pyrrolo[2,3-b]pyridin-3-ylmethyl)-phenyl]-3-(3-trifluoromethyl-phenyl)-urea]
≤ 10 µM: B-Raf V600E | Kdr | Kit

CCCC(=O)Nc1ccc(F)c(Cc2c[nH]c3ncc(-c4cccnc4)cc23)c1F [Compound P-1280]
≤ 10 µM: B-Raf V600E | Jnk1 | Kdr | Kit

COc1cc(OC)cc(C(=O)c2c[nH]c3ncc(-c4cccc(NS(C)(=O)=O)c4)cc23)c1 [Compound P-1426, N-{3-[3-(3,5-Dimethoxy-benzoyl)-1H-pyrrolo[2,3-b]pyridin-5-yl]-phenyl}-methanesulfonamide]
≤ 10 µM: Abl | B-Raf V600E | Kdr | Kit

CCCS(=O)(=O)Nc1ccc(F)c(C(=O)c2c[nH]c3ncc(-c4cccnc4)cc23)c1F [Compound P-0088, Propane-1-sulfonic acid [2,4-difluoro-3-(5-pyridin-3-yl-1H-pyrrolo[2,3-b]pyridine-3-carbonyl)-phenyl]-amide]
not listed: Akt3 | Abl
≤ 10 µM: all other assays above

CS(=O)(=O)Nc1cccc(-c2cnc3[nH]cc(C(=O)c4cccc(O)c4F)c3c2)c1 [Compound P-0038, N-{3-[3-(2-Fluoro-3-hydroxy-benzoyl)-1H-pyrrolo[2,3-b]pyridin-5-yl]-phenyl}-methanesulfonamide]
≤ 10 µM: B-Raf V600E | Jnk1 | Kit | Akt3

Nc1ccnc2[nH]cc(C(=O)c3ccccc3)c12 [Compound P-0029]
≤ 10 µM: Kdr | Kit | Yes

Cc1c(O)cccc1C(=O)c1c[nH]c2ncc(-c3ccccc3)cc12 [Compound P-0016, (3-Hydroxy-2-methyl-phenyl)-(5-phenyl-1H-pyrrolo[2,3b]pyridin-3-yl)-methanone]
not listed: Akt3 | Abl
≤ 10 µM: all other assays above

NC(=O)c1cccc(-c2cnc3[nH]cc(C(=O)c4cccc(O)c4F)c3c2)c1 [Compound P-0034, 3-[3-(2-Fluoro-3-hydroxy-benzoyl)-1H-pyrrolo[2,3-b]pyridin-5-yl]benzamide]
≤ 10 µM: B-Raf V600E | Jnk1 | Kit | Akt3

Oc1ccc(F)c(Cc2c[nH]c3ncc(-c4cccnc4)cc23)c1F [Compound P-0078, 2,4-difluoro-3-(5-pyridin-3-yl-1H-pyrrolo[2,3-b]pyridin-3-ylmethyl)-phenol]
≤ 10 µM: B-Raf V600E | Jnk1 | Kdr | Kit

OC(c1c(F)ccc(F)c1F)c1c[nH]c2ncc(-c3cccnc3)cc12 (stereo not shown) [Compound P-0101]
≤ 10 µM: Kdr | Kit | Yes

O=C(c1cccc(O)c1F)c1c[nH]c2ncc(-c3cccnc3)cc12 [Compound P-0027, (2-Fluoro-3-hydroxy-phenyl)-(5-pyridin-3-yl-1H-pyrrolo[2,3-b]pyridin-3-yl)-methanone]
not listed: Abl
≤ 10 µM: all other assays above

CS(=O)(=O)c1cccc(-c2ccnc3[nH]cc(C(=O)c4cc(F)ccc4F)c23)c1 [Compound P-0171]
≤ 10 µM: B-Raf V600E | Kit | Yes

COc1cccc(C(=O)c2c[nH]c3ncc(-c4cccc(NC(C)=O)c4)cc23)c1F [Compound P-1336, N-{3-[3-(2-Fluoro-3-methoxy-benzoyl)-1H-pyrrolo[2,3-b]pyridin-5-yl]-phenyl}-acetamide]
≤ 10 µM: Abl | B-Raf V600E | Jnk1 | Kit

CC(=O)Nc1cccc(-c2cnc3[nH]cc(C(=O)c4cccc(O)c4F)c3c2)c1 [Compound P-0035, N-{3-[3-(2-Fluoro-3-hydroxy-benzoyl)-1H-pyrrolo[2,3-b]pyridin-5-yl]-phenyl}-acetamide]
≤ 10 µM: B-Raf V600E | Jnk1 | Kit | Akt3

O=C(c1cccc(O)c1F)c1c[nH]c2ncc(-c3ccccc3)cc12 [Compound P-0036, (2-fluoro-3-hydroxy-phenyl)-(5-phenyl-1H-pyrrolo[2,3-b]pyridin-3-yl)-methanone]
not listed: Kdr | Abl
≤ 10 µM: all other assays above

Oc1ccc(F)c(C(O)c2c[nH]c3ncc(-c4cccnc4)cc23)c1F (stereo not shown) [Compound P-0009, 2,4-difluoro-3-[hydroxy-(5-pyridin-3-yl-1H-pyrrolo[2,3-b]pyridin-3-yl)-methyl]-phenol]
≤ 10 µM: B-Raf V600E | Jnk1 | Kdr | Kit

CCCS(=O)(=O)Nc1ccc(F)c(C(=O)c2c[nH]c3ncc(-c4ccccc4)cc23)c1F [Compound P-0636, Propane-1-sulfonic acid [2,4-difluoro-3-(5-phenyl-1H-pyrrolo[2,3-b]pyridine-3-carbonyl)-phenyl]-amide]
≤ 10 µM: B-Raf V600E | Jnk1 | Kit | Yes
